According to patent publication US11713335B2, “Aminocoumarin compounds and methods of their use” (President and Fellows of Harvard College, priority 2018, dated 2023):
Values after ≈ are worked out from the molar mass of the structure shown. Structures can show the parent of a compound that is named as a salt. Where two headings read alike, the source gives them in different places.

What was measured:
E. coli MC4100 = assay: Minimal inhibitory concentration, E. coli MC4100; type: cell-based; conditions: 16 hour minimal inhibitory concentration at 37° C., read-out: MIC (μM) E. coli MC4100 ara+
How it was run: (§1)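 Saturated overnight cultures in LB (TSA for S. aureus), grown at 37 °C with shaking, were diluted 1:100 twice and exposed to twofold serial dilutions of compound from DMSO stock. After 16 h static incubation at 37 °C, OD600 was read; MIC is the lowest concentration inhibiting growth, reported in µM.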

A. baumannii 19606 = assay: Minimal inhibitory concentration, A. baumannii 19606; type: cell-based; conditions: 16 hour minimal inhibitory concentration at 37° C., read-out: MIC (μM) A. baumannii 19606
How it was run: as §1

K. pneumoniae 700721 = assay: Minimal inhibitory concentration, K. pneumoniae 700721; type: cell-based; conditions: 16 hour minimal inhibitory concentration at 37° C., read-out: MIC (μM) K. pneumoniae 700721
How it was run: as §1

E. coli 25922 = assay: Minimal inhibitory concentration, E. coli 25922; type: cell-based; conditions: 16 hour minimal inhibitory concentration at 37° C., read-out: MIC (μM) E. coli 25922
How it was run: as §1

S. aureus MW2 = assay: Minimal inhibitory concentration, S. aureus MW2; type: cell-based; conditions: 16 hour minimal inhibitory concentration at 37° C., read-out: MIC (μM) S. aureus MW2 (MRSA)
How it was run: as §1

WT E. coli = assay: Minimal inhibitory concentration in wild-type E. coli; type: cell-based, Escherichia coli; conditions: wild-type E. coli, 37° C., 16 hours, read-out: MIC (μM) in WT E. coli
Procedure: General Procedure for Determination of Minimal Inhibitory Concentrations
Overnight cultures (5 mL) of bacterial strains were grown in LB media or TSA media (for S. aureus) at 37° C. and with shaking at 220 rpm until saturation. The overnight culture was diluted serially 1:100 (50 μL in 5 mL sterile media) and then 1:100 (250 μL in 25 mL sterile media). The 25 mL of diluted culture was then dispensed to a sterile 96 well plate (Corning #3370). 198 μL of culture were dispensed into row A and 100 μL of this culture were dispensed into rows B-H. Aminocoumarin compound (DMSO stock) were added to the first row and then the row was mixed by pipetting. 100 μL of culture from row A were transferred to row B and the serial dilution continued until the final 100 μL from row H were discarded. The plate was incubated without shaking in a 37° C. for 16 hours and then read by visible light spectrophotometer (Molecular Devices) at 600 nm. The minimal inhibitory concentration (MIC) was determined as the lowest concentration of compound concentration that inhibited the growth of bacteria.

E. cloacae 13047 = assay: Minimal inhibitory concentration, E. cloacae 13047; type: cell-based; conditions: 16 hour minimal inhibitory concentration at 37° C., read-out: MIC (μM) E. cloacae 13047
How it was run: as §1

S. aureus RN4220 = assay: Minimal inhibitory concentration, S. aureus RN4220; type: cell-based; conditions: 16 hour minimal inhibitory concentration at 37° C., read-out: MIC (μM) S. aureus RN4220
How it was run: as §1

[1] = Acinetobacter baumannii, 19606, 16 h
[2] = Staphylococcus aureus, MRSA, 16 h
[3] = Staphylococcus aureus, RN4220, 16 h

Compound	MIC (E. coli MC4100) [µM]	MIC (A. baumannii 19606) [µM]	MIC (K. pneumoniae 700721) [µM]	MIC (E. coli 25922) [µM]	MIC (S. aureus MW2) [µM]	MIC (WT E. coli) [µM]	MIC (E. cloacae 13047) [µM]	MIC (S. aureus RN4220) [µM]	MIC (E. coli MC4100; Escherichia coli, MC4100, 16 h) [µM]	MIC (A. baumannii 19606; [1]) [µM]	MIC (K. pneumoniae 700721; Klebsiella pneumoniae, 700721) [µM]	MIC (E. coli 25922; Escherichia coli, 25922, 16 h) [µM]	MIC (S. aureus MW2; [2]) [µM]	MIC (WT E. coli; Escherichia coli) [µM]	MIC (E. cloacae 13047; Enterobacter cloacae, 13047) [µM]	MIC (S. aureus RN4220; [3]) [µM]
CO[C@@H]1[C@@H](OC(N)=O)[C@@H](O)[C@H](Oc2ccc3c(O)c(NC(=O)c4ccc(O)c(-c5ccc6ccccc6c5)c4)c(=O)oc3c2C)OC1(C)C [Compound 92]	150 (≈ 101 µg/mL)	1.16 (≈ 0.778 µg/mL)	>100	>200	0.09 (≈ 0.0604 µg/mL)	150 (≈ 101 µg/mL)	>100	0.09 (≈ 0.0604 µg/mL)	–	–	–	–	–	–	–	–
CO[C@@H]1[C@@H](OC(N)=O)[C@@H](O)[C@H](Oc2ccc3c(O)c(NC(=O)c4ccc(O)c(CCC(N)=O)c4)c(=O)oc3c2C)OC1(C)C [Compound 91]	>200	>50	>100	>200	>100	>300	>100	>100	–	–	–	–	–	–	–	–
CO[C@@H]1[C@@H](OC(N)=O)[C@@H](O)[C@H](Oc2ccc3c(O)c(NC(=O)c4cccc(-c5ccc(N(C)C)cc5)c4)c(=O)oc3c2C)OC1(C)C [Compound 25]	–	–	–	–	–	–	–	–	> 200	19 (≈ 12.3 µg/mL)	> 100	> 200	0.96 (≈ 0.622 µg/mL)	> 300	> 100	0.96 (≈ 0.622 µg/mL)
CO[C@@H]1[C@@H](OC(N)=O)[C@@H](O)[C@H](Oc2ccc3c(O)c(NC(=O)c4ccc(C5CCCCC5)cc4)c(=O)oc3c2C)OC1(C)C [Compound 41]	–	–	–	–	–	–	–	–	> 200	> 50	> 100	> 200	20 (≈ 12.2 µg/mL)	> 300	> 100	20 (≈ 12.2 µg/mL)
CO[C@@H]1[C@@H](OC(N)=O)[C@@H](O)[C@H](Oc2ccc3c(O)c(NC(=O)/C=C/c4ccccc4)c(=O)oc3c2C)OC1(C)C [Compound 27]	–	–	–	–	–	–	–	–	> 200	> 50	> 100	> 200	23 (≈ 12.8 µg/mL)	> 300	> 100	45 (≈ 25 µg/mL)
CO[C@@H]1[C@@H](OC(N)=O)[C@@H](O)[C@H](Oc2ccc3c(O)c(NC(=O)c4cccc(-c5ccc(C(C)C)cc5)c4)c(=O)oc3c2C)OC1(C)C [Compound 48]	–	–	–	–	–	–	–	–	89 (≈ 57.6 µg/mL)	19 (≈ 12.3 µg/mL)	77 (≈ 49.8 µg/mL)	77 (≈ 49.8 µg/mL)	0.48 (≈ 0.31 µg/mL)	89 (≈ 57.6 µg/mL)	> 100	0.77 (≈ 0.498 µg/mL)
CO[C@@H]1[C@@H](OC(N)=O)[C@@H](O)[C@H](Oc2ccc3c(O)c(NC(=O)c4cccc(-c5ccc(Br)cc5)c4)c(=O)oc3c2C)OC1(C)C [Compound 68]	–	–	–	–	–	–	–	–	18 (≈ 12.3 µg/mL)	18 (≈ 12.3 µg/mL)	> 100	18 (≈ 12.3 µg/mL)	0.91 (≈ 0.622 µg/mL)	18 (≈ 12.3 µg/mL)	> 100	0.91 (≈ 0.622 µg/mL)
CO[C@@H]1[C@@H](OC(N)=O)[C@@H](O)[C@H](Oc2ccc3c(O)c(NC(=O)c4ccc(N)c(-c5ccccc5)c4)c(=O)oc3c2C)OC1(C)C [Compound 86]	18 (≈ 11.2 µg/mL)	>50	40 (≈ 24.8 µg/mL)	20 (≈ 12.4 µg/mL)	20 (≈ 12.4 µg/mL)	18 (≈ 11.2 µg/mL)	>100	20 (≈ 12.4 µg/mL)	–	–	–	–	–	–	–	–
CO[C@@H]1[C@@H](OC(N)=O)[C@@H](O)[C@H](Oc2ccc3c(O)c(NC(=O)c4ccc(C)o4)c(=O)oc3c2C)OC1(C)C [Compound 12]	–	–	–	–	–	>300	–	–	–	–	–	–	–	–	–	–
COC1[C@H](OC(N)=O)C(O)[C@H](Oc2ccc3c(O)c(N)c(=O)oc3c2C)OC1(C)C (stereo partly shown) [Compound 19, novenamine hydrochloride]	–	–	–	–	–	–	–	–	–	–	–	–	–	> 300	–	–
CO[C@@H]1[C@@H](OC(N)=O)[C@@H](O)[C@H](Oc2ccc3c(O)c(NC(=O)c4cccc(-c5cn[nH]c5)c4)c(=O)oc3c2C)OC1(C)C [Compound 18]	–	–	–	–	–	>300	–	–	–	–	–	–	–	–	–	–
CO[C@@H]1[C@@H](O)[C@@H](OC(=O)c2ccc[nH]2)[C@H](Oc2ccc3c(O)c(NC(=O)c4ccc(O)c(CC=C(C)C)c4)c(=O)oc3c2C)OC1(C)C [Compound 113]	>200	2 (≈ 1.33 µg/mL)	>100	>200	0.24 (≈ 0.159 µg/mL)	–	>100	0.5 (≈ 0.331 µg/mL)	–	–	–	–	–	–	–	–
CO[C@@H]1[C@@H](O)[C@@H](OC(=O)NC2CCCC2)[C@H](Oc2ccc3c(O)c(NC(=O)c4ccc(O)c(CC=C(C)C)c4)c(=O)oc3c2C)OC1(C)C [Compound 107]	>200	9 (≈ 6.13 µg/mL)	>100	>200	73 (≈ 49.7 µg/mL)	–	>100	73 (≈ 49.7 µg/mL)	–	–	–	–	–	–	–	–
CO[C@@H]1[C@@H](OC(N)=O)[C@@H](O)[C@H](Oc2ccc3c(O)c(NC(=O)c4cccc(Oc5ccc(C(F)(F)F)cc5)c4)c(=O)oc3c2C)OC1(C)C [Compound 251]	–	–	–	–	–	–	–	–	4.5 (≈ 3.1 µg/mL)	> 50	> 100	9 (≈ 6.2 µg/mL)	9 (≈ 6.2 µg/mL)	–	> 100	9 (≈ 6.2 µg/mL)
CO[C@@H]1[C@@H](OC(N)=O)[C@@H](O)[C@H](Oc2ccc3c(O)c(NC(=O)c4cccc(CN)c4)c(=O)oc3c2C)OC1(C)C [Compound 206]	–	–	–	–	–	–	–	–	> 200	> 50	> 100	> 200	> 100	–	> 100	> 100
CO[C@@H]1[C@@H](OC(N)=O)[C@@H](O)[C@H](Oc2ccc3c(O)c(NC(=O)c4cccc(Oc5ccccc5C)c4)c(=O)oc3c2C)OC1(C)C [Compound 220]	–	–	–	–	–	–	–	–	158 (≈ 100 µg/mL)	> 50	> 100	160 (≈ 102 µg/mL)	10 (≈ 6.35 µg/mL)	–	> 100	10 (≈ 6.35 µg/mL)
CO[C@@H]1[C@@H](OC(N)=O)[C@@H](O)[C@H](Oc2ccc3c(O)c(NC(=O)c4ccc([N+](=O)[O-])c(Oc5ccccc5)c4)c(=O)oc3c2C)OC1(C)C [Compound 253]	–	–	–	–	–	–	–	–	75 (≈ 49.9 µg/mL)	> 50	> 100	75 (≈ 49.9 µg/mL)	38 (≈ 25.3 µg/mL)	–	> 100	38 (≈ 25.3 µg/mL)
CCCOCCOCC#Cc1ccc(C(=O)Nc2c(O)c3ccc(O[C@@H]4OC(C)(C)[C@H](OC)[C@@H](OC(N)=O)[C@H]4O)c(C)c3oc2=O)cc1 [Compound 226]	–	–	–	–	–	–	–	–	> 200	> 50	> 100	> 200	> 100	–	> 100	> 100
CO[C@@H]1[C@@H](OC(N)=O)[C@@H](O)[C@H](Oc2ccc3c(O)c(NC(=O)c4cccc(Br)c4)c(=O)oc3c2C)OC1(C)C [Compound 232]	–	–	–	–	–	–	–	–	> 200	> 50	> 100	> 200	82 (≈ 49.8 µg/mL)	–	> 100	82 (≈ 49.8 µg/mL)
CO[C@@H]1[C@@H](OC(N)=O)[C@@H](O)[C@H](Oc2ccc3c(O)c(NC(=O)c4ccc(O)c(C/C=C/CC(=O)O)c4)c(=O)oc3c2C)OC1(C)C [Compound 80]	–	–	–	–	–	>300	–	–	–	–	–	–	–	–	–	–
CO[C@@H]1[C@@H](OC(N)=O)[C@@H](O)[C@H](Oc2ccc3c(O)c(NC(=O)c4ccc5c(c4)oc4ccccc45)c(=O)oc3c2C)OC1(C)C [Compound 250]	–	–	–	–	–	–	–	–	> 100	> 50	> 100	> 200	10 (≈ 6.19 µg/mL)	–	> 100	10 (≈ 6.19 µg/mL)
CO[C@@H]1[C@H](OC(N)=O)C(O)[C@H](Oc2ccc3c(O)c(NS(=O)(=O)c4cccc(-c5ccccc5)c4)c(=O)oc3c2C)OC1(C)C (stereo partly shown) [Compound 36]	–	–	–	–	–	–	–	–	–	–	–	–	–	> 300	–	–
CO[C@@H]1[C@@H](OC(N)=O)[C@@H](O)[C@H](Oc2ccc3c(O)c(NC(=O)c4ccnc(Oc5ccccc5)c4)c(=O)oc3c2C)OC1(C)C [Compound 237]	–	–	–	–	–	–	–	–	> 100	> 50	> 100	> 200	> 100	–	> 100	> 100
